Earlier results as cited in US20050085446A1, “Fluoroquinolone formulations and methods of making and using the same” (priority 2003, published 2005).
Like-named read-outs stand apart in the source and are kept apart here.

Tested on: bacterial strains

Row | Molecule | MIC90 (generally around) | MIC90
1 | O=C(O)c1cn(C2CC2)c2cc(N3CCNCC3)c(F)cc2c1=O [ciprofloxacin, 1-cyclopropyl-6-fluoro-1,4-dihydro-4-oxo-7-(1-piperazinyl)-3-quinolinecarboxylic acid] | around 0.5 μg/g | –
2 | gentamicin | – | 10 μg/gm
